Data taken from ChEMBL document CHEMBL3632563, “Synthesis of natural phaeosphaeride A derivatives and an in vitro evaluation of their anti-cancer potential” (Bioorg Med Chem Lett, 2015).
Calls of active or inactive are those of the source. The calls are words filed in the database; no cut-off is given here.

What was measured:
A549 [1] = experiment: Cytotoxicity against human A549 cells assessed as decrease in cell viability at 10 to 100 uM after 48 hrs by SRB assay; type: functional, cell-based; conditions: for EC50: A549, 48 h
A549 [2] = experiment: Cytotoxicity against human A549 cells assessed as decrease in cell viability at 25 to 100 uM after 48 hrs by SRB assay; type: functional, cell-based
A549 [3] = experiment: Cytotoxicity against human A549 cells assessed as decrease in cell viability at 10 to 100 uM after 48 hrs by MTT assay; type: functional, cell-based
[4] = Growth inhibition of human U266 cells; type: functional, cell-based; conditions: U-266
[5] = molecular target: Signal transducer and activator of transcription 3 (Homo sapiens, UniProt P40763); experiment: Inhibition of STAT3 (unknown origin) assessed as reduction in STAT3-DNA binding
Signal transducer and activator of transcription 3, sequence (P40763 whole entry): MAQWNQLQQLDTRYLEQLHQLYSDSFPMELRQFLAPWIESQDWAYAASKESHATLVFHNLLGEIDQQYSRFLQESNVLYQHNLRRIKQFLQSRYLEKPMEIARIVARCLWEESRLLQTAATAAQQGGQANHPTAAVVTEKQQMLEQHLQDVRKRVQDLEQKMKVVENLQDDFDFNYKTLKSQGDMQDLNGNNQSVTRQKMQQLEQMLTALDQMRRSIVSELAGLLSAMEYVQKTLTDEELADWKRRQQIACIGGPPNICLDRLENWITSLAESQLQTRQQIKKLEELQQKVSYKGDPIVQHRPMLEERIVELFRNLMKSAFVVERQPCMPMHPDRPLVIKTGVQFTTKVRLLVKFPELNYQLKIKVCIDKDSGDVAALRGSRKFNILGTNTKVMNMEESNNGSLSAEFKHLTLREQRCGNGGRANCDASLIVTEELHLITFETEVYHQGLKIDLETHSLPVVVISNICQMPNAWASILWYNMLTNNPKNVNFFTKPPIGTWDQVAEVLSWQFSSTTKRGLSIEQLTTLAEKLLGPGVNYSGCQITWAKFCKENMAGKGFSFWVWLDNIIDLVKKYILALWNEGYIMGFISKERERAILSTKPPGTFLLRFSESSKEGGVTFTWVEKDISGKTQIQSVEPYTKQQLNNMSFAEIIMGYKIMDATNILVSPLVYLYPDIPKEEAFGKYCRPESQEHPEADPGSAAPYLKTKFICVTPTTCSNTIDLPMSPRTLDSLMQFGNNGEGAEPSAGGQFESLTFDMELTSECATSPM

SMILES: C=C1C2=C(C(=O)N1OC)[C@H](OC(=O)CCl)[C@@](C)(O)[C@H](CCCCC)O2
- Activity (A549 [1]): Dose-dependent effect
- EC50 (A549 [1]): 33 µM
- Activity (A549 [2]): Active
- Activity (A549 [3]): Active

SMILES: CO[C@@]12[C@H](COC(N)=O)C3=C(C(=O)C(C)=C(N)C3=O)N1C[C@@H]1N[C@@H]12 [MITOMYCIN]
- EC50 (A549 [1]): 5.2 µM

SMILES: CCCCC[C@@H]1OC(/C(C)=N/OC)=C(C(=O)O)[C@H](O)[C@@]1(C)O
- Activity (A549 [1]): inactive
- Activity (A549 [3]): inactive

SMILES: C=C1C2=C(C(=O)N1OC)[C@H](O)[C@@](C)(O)[C@H](CCCCC)O2
- EC50 [4]: 6.7 µM
- Activity (A549 [1]): Dose-dependent effect
- EC50 (A549 [1]): 46 µM
- IC50 [5]: 610 µM
- Activity (A549 [2]): Active
- Activity (A549 [3]): Active

SMILES: CCCCC[C@@H]1OC2=C(C(=O)NC2(COC)OC)[C@H](O)[C@@]1(C)O (some centres undefined)
- Activity (A549 [1]): inactive
- Activity (A549 [3]): inactive

SMILES: C=C1C2=C(C(=O)N1OC)[C@H](OC(C)=O)[C@@](C)(O)[C@H](CCCCC)O2
- Activity (A549 [1]): Dose-dependent effect
- EC50 (A549 [1]): 49 µM
- Activity (A549 [2]): Active
- Activity (A549 [3]): Active
